Source: ChEMBL document CHEMBL5465560, “Selectivity Literature for EUbOPEN Chemogenomic Library” (2024)
One block for each molecule: values may come before it.

Tests used:
[1] = molecular target: Ribosomal protein S6 kinase beta-1 (Homo sapiens, UniProt P23443); assay: Selectivity interaction (Enyzmatic assay) EUB0000601a RPS6KB1
[2] = molecular target: Protein arginine N-methyltransferase 1 (Homo sapiens, UniProt Q99873); assay: Selectivity interaction (Methyltransferase screen (radiometric assays, panel of 8 PRMTs, 21 protein lysine methyltransferases, 3 DNA methyltransferases, and one RNA methyltransferase)) EUB0000272b PRMT1
[3] = molecular target: Protein arginine N-methyltransferase 5 (Homo sapiens, UniProt O14744); assay: Selectivity interaction (Methyltransferase screen (Scintillation proximity assays)) EUB0000255b PRMT5
[4] = molecular target: T1, Serine/threonine-protein kinase ULK3 (Homo sapiens) (UniProt Q6PHR2); assay: Selectivity interaction (KinomeScan (DiscoverX)) EUB0000655a ULK3; conditions: at 10 µM
T1 sequence (whole entry): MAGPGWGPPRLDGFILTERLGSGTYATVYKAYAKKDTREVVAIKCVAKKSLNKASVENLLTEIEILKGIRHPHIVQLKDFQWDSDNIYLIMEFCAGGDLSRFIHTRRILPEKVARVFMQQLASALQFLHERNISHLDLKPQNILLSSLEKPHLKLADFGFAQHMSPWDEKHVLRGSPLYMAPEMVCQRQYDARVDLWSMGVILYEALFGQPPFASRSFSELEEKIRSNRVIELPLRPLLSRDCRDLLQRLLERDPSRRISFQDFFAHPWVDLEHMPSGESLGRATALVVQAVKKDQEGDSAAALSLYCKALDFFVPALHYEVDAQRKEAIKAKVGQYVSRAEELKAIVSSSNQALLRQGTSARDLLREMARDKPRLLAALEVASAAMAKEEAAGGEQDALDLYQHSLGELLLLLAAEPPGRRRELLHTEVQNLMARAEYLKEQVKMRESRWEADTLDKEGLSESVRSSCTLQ

[5] = molecular target: T2, Serine/threonine-protein kinase DCLK1 (Homo sapiens) (UniProt O15075); assay: Selectivity interaction (KinomeScan (DiscoverX)) EUB0000595a DCLK1; conditions: at 10 µM
T2 sequence (whole entry): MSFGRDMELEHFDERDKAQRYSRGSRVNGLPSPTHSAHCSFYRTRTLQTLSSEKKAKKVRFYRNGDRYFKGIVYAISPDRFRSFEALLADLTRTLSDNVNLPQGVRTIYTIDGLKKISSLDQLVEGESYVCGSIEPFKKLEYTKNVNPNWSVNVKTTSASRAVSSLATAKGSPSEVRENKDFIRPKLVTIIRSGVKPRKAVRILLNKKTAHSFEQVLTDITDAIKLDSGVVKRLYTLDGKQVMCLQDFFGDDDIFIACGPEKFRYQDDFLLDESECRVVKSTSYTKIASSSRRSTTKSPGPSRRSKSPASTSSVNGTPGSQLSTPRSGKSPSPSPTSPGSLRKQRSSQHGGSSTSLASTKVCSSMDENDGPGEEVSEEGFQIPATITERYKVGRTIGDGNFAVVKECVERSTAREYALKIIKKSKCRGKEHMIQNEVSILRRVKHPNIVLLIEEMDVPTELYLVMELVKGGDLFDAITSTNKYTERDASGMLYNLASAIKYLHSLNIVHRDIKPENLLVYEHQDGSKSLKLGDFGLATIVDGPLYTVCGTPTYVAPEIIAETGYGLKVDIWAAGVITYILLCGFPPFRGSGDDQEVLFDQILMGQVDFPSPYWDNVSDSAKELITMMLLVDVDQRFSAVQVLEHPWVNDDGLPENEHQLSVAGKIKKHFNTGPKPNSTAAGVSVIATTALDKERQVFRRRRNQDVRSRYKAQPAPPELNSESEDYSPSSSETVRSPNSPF

[6] = molecular target: T3, Membrane-associated tyrosine- and threonine-specific cdc2-inhibitory kinase (Homo sapiens) (UniProt Q99640); assay: Selectivity interaction (ProQinase) EUB0000171b PKMYT1
T3 sequence (whole entry): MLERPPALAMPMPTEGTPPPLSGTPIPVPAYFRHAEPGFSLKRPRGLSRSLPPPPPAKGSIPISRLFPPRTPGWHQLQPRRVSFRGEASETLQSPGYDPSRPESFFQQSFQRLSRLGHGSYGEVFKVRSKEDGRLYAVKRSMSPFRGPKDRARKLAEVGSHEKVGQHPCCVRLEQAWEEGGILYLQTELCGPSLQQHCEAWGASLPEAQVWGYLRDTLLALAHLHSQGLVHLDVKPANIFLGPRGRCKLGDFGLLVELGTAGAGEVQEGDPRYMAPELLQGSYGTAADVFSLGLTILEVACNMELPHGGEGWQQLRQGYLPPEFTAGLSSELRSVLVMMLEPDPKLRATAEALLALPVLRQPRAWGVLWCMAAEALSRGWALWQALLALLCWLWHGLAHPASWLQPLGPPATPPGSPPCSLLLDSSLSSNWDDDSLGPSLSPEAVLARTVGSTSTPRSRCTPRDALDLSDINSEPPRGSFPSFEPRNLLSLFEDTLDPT

Focal adhesion kinase 1 = Focal adhesion kinase 1 (Homo sapiens, UniProt Q05397); assay: Selectivity interaction (ProQinase) EUB0000171b PTK2
[7] = molecular target: Ribosomal protein S6 kinase alpha-4 (Homo sapiens) (UniProt O75676); assay: Selectivity interaction (KinomeScan (DiscoverX)) EUB0000092b RPS6KA4; conditions: at 10 µM
Ribosomal protein S6 kinase alpha-4 (Homo sapiens), sequence (O75676 whole entry, looked up): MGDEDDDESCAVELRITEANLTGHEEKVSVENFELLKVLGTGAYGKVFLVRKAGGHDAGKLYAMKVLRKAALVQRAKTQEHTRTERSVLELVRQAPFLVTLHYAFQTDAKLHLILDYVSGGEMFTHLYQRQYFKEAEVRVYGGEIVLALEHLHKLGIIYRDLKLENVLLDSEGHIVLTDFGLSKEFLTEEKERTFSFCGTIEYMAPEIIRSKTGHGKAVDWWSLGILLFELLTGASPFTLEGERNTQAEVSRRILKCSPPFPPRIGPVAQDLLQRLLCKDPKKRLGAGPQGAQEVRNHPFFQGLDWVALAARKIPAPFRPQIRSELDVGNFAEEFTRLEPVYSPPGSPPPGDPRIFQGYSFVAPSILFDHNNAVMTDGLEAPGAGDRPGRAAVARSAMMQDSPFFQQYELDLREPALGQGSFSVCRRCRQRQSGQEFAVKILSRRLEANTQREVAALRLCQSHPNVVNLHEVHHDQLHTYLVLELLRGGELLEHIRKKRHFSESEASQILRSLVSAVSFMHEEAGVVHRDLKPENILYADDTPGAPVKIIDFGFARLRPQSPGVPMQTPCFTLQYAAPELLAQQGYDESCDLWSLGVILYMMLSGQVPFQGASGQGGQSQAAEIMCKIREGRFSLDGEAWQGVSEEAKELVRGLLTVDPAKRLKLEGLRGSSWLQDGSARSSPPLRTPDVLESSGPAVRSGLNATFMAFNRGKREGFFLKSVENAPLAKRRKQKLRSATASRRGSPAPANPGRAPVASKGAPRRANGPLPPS

Protein arginine N-methyltransferase 5, sequence (O14744 whole entry): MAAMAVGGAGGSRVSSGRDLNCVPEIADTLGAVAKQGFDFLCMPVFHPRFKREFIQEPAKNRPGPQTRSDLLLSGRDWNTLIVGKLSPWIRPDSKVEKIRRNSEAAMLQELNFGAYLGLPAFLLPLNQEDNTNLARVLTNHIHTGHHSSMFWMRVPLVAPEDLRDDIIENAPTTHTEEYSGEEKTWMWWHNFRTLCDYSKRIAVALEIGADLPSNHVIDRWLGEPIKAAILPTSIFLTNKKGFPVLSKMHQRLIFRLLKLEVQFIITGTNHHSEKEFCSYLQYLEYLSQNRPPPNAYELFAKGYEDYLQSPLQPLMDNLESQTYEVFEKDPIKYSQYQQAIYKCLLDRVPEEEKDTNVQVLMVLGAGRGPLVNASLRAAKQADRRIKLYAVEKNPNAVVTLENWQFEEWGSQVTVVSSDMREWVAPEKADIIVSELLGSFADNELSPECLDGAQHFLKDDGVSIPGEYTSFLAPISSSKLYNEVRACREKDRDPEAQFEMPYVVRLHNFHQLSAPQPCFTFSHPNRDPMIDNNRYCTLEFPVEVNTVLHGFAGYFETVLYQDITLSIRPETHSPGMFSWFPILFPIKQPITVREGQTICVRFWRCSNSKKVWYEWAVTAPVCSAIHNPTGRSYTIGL
Focal adhesion kinase 1, sequence (Q05397 2-1052 limits assumed): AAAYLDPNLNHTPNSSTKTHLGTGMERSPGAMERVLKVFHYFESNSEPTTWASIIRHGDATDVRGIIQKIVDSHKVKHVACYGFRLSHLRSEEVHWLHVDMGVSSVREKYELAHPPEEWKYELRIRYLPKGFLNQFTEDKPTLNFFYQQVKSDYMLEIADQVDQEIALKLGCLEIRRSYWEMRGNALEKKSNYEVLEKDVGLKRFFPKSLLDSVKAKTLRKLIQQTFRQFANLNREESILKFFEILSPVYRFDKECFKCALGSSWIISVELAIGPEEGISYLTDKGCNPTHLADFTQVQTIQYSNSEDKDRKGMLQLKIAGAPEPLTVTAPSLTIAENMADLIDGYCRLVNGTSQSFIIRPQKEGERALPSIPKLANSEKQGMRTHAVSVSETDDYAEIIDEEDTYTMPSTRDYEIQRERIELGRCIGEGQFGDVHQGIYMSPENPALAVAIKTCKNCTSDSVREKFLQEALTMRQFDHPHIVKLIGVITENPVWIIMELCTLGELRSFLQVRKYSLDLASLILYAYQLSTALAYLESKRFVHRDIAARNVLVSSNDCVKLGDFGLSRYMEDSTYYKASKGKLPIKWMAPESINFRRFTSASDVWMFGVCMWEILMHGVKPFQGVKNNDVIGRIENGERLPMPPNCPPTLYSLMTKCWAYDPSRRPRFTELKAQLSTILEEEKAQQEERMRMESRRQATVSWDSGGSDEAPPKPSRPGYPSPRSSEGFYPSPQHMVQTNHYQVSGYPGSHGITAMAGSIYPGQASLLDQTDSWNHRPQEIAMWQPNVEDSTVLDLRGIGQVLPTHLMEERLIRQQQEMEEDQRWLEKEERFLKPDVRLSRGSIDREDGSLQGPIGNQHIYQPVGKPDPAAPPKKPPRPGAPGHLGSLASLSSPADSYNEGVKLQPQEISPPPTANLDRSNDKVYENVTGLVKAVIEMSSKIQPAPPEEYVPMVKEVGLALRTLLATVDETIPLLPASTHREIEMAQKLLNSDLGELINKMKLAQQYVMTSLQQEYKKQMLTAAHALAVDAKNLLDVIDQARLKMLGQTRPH
Protein arginine N-methyltransferase 1, sequence (Q99873 whole entry, looked up): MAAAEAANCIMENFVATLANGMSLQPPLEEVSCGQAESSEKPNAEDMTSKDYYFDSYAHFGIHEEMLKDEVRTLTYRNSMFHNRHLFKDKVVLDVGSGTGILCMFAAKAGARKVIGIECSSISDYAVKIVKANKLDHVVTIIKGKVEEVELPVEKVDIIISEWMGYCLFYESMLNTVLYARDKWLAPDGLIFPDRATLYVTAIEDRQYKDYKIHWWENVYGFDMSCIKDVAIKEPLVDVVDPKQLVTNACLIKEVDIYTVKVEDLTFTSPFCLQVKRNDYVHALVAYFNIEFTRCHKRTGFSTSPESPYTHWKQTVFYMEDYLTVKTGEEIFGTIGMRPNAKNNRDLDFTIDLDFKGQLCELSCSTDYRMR
Ribosomal protein S6 kinase beta-1, sequence (P23443 whole entry): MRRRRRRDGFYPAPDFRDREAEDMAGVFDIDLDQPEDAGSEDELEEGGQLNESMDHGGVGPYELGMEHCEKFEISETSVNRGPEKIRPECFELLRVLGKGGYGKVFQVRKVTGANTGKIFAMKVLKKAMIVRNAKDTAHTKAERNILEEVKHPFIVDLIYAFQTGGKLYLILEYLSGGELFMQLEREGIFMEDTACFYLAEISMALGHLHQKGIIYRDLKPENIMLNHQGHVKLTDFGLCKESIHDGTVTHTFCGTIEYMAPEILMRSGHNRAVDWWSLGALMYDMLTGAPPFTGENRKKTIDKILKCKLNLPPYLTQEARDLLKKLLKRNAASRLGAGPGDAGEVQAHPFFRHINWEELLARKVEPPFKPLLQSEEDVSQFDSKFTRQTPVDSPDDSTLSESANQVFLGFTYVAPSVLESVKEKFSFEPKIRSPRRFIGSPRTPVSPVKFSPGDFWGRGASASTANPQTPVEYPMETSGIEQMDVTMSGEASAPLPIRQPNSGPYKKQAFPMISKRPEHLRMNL

IC50 [1]: > 10 µM
Structure (SMILES): CCc1cc(Nc2nccc(-c3c(-c4ccc(OC)c(C(=O)Nc5c(F)cccc5F)c4)nc4ccccn34)n2)c(OC)cc1N1CCC(N2CCN(S(C)(=O)=O)CC2)CC1

% of activity ([2]; at 1 µM): 98.7% | % of activity ([2]; at 10 µM): 101%
Structure (SMILES): Cc1cc(C)cc([C@H]2c3cc(C)ccc3NC(=O)CN2C(=O)c2ccc(Br)s2)c1

Structure (SMILES): COCCN1CCC(c2cc(CN(C)C(=O)c3cccc(Oc4ccccc4)c3)ccn2)CC1
% activity ([3]; at 1 µM): > 95% | % activity ([3]; at 10 µM): > 90%

Structure (SMILES): CN(C)CCOc1ccc(-c2nc(-c3ccncc3)c(-c3ccc4c(c3)CC/C4=N\O)[nH]2)cc1
% of control [4]: 88%

Structure (SMILES): COCC(=O)NC/C=C/c1ccc2ncnc(Nc3ccc(Oc4ccc(C)nc4)c(C)c3)c2c1 [CP-724714]
% of control [5]: 100%

% of control ([6]; at 1 µM): 74% | % of control ([6]; at 5 µM): 56% | % of control (Focal adhesion kinase 1; at 1 µM): 106% | % of control (Focal adhesion kinase 1; at 5 µM): 92%
Structure (SMILES): C=CC(=O)Nc1cccc(C(=O)Nc2ccc(Nc3cc(-c4[nH]c(SC)nc4C)ccn3)cc2)c1

Structure (SMILES): CCC(=O)N1CCN(c2ccc(-n3c(=O)ccc4cnc5ccc(-c6cnc7ccccc7c6)cc5c43)cc2C(F)(F)F)CC1
% of control [7]: 100%
